Measured values from US20220401407A1, “REGULATION OF THE SLEEP/WAKE CYCLE USING C[…]” (Demetrix, Inc., priority 2021, published 2022).
Entries after “also recorded” stand apart in the source; their conditions may differ.

What was measured:
Format in all cases: cell-based
HCRTR2 [1] = molecular target: T1, HCRTR2 (Homo sapiens, UniProt O43614); assay: PathHunter β-Arrestin GPCR antagonist assay, HCRTR2; conditions: for HCRTR2 (Antagonist) percent inhibition: antagonist mode, agonist challenge at EC80
T1 sequence (O43614 1-444): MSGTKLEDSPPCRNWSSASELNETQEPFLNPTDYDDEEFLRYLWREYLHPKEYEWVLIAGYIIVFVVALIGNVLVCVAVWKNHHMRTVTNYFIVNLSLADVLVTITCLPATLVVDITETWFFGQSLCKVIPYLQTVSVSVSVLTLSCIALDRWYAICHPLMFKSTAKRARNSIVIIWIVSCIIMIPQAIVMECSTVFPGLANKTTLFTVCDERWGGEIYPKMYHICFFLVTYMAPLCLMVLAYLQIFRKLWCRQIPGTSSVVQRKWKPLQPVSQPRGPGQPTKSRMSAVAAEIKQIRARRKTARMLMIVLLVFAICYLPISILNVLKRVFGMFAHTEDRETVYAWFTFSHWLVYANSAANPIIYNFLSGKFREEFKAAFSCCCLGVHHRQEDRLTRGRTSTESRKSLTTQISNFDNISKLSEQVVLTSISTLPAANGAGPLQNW
Protocol: (§1) To evaluate the role specific cannabinoid compounds may play on the sleep/wake cycle, a GPCR reactivity assay was performed to determine the reactivity of 19 cannabinoid compounds to the orexin receivers HCRTR1 and HCRTR2. The evaluated cannabinoid compounds were: CBN, THCV, CBDVA, CBG, CBL, CBC, CBDV, CBDA, CBD, CBGA, (+)-CBD, CBG-C4, CBD-C1, CBD-C2, CBGV, CBGA-C4, CBGVA, CBCA, and CBLA. Orexin A was used as the control for HCRTR1 and HCRTR2.
(§2) To perform the GPCR reactivity assay, a commercial GPCR assay, PathHunter® β-Arrestin from Eurofins DiscoverX Products (Fremont, Calif.), was used. […] At activation of the GPCR receptor and recruitment of β-arrestin, complementation of the peptide fragments occurs and restores β-galactosidase activity. The amount of β-galactosidase activity is then measurable using chemiluminescent reagents.
(§3) In each of the two antagonist assays, PathHunter® cell lines were removed from a freezer stock and seeded at a volume of 20 μL into white walled, 384-well microplates and incubated at 37° C. Each cell was pre-incubated with an antagonist followed by an agonist challenge at the EC80 concentration. Cells were then diluted to generate a 5× sample in assay buffer. 5 μL of the 5× sample was then added to cells and incubated at 37° C. for 30 minutes. Finally, 5 μL of 6×EC80 agonist in assay buffer were added to the cells and incubated at 37° C. for 90 minutes or 180 minutes. The assay signal was generated through addition of 12.5 μL or 15 μL (50% V/V) of a detection reagent cocktail followed by a one hour incubation time at room temperature. Microplates were read following signal generation with a PerkinElmer Envision™ (PerkinElmer Inc., Waltham, Mass.) for chemiluminescent signal detection. Reactivity was analyzed using the CBIS data analysis suite (ChemInnovation, CA) where RLU refers to the raw measured values. The percent inhibition was calculated using the formula: % Inhibition=100%*(1−mean RLU of test sample−mean RLU of control)/(mean RLU of EC80 control−mean RLU of vehicle control).
(§4) For agonist activity, the percent activity is depicted while for antagonist activity, the percent inhibition is depicted.

HCRTR2 [2] = molecular target: T1, HCRTR2; assay: PathHunter β-Arrestin GPCR agonist assay, HCRTR2; design: concentration or dose not given beside the values; conditions: agonist mode; Orexin A as control
Protocol: as §1, §2
(§5) A total of four assays were run. Agonist assays were run for each of HCRTR1 and HCRTR2 and antagonist assays were run for HCRTR1 and HCRTR2. In each of the two agonist assays, PathHunter® cell lines were removed from a freezer stock and seeded at a volume of 20 μL into white walled, 384-well microplates and incubated at 37° C. Each cell was incubated with a sample to induce a response and then diluted to generate a 5× sample in assay buffer. 5 μL of the 5× sample was then added to cells and incubated at 37° C. for 90 or 180 minutes. The final assay concentration was 1%. The assay signal was generated through addition of 12.5 μL or 15 μL (50% V/V) of a detection reagent cocktail followed by a one hour incubation time at room temperature. Microplates were read following signal generation with a PerkinElmer Envision™ (PerkinElmer Inc., Waltham, Mass.) for chemiluminescent signal detection. Reactivity was analyzed using the CBIS data analysis suite (ChemInnovation, CA) where RLU refers to the raw measured values. The percent activity was then calculated using the formula: % Activity=100%*(mean RLU of test sample−mean RLU of control)/(mean max control ligand−mean RLU of vehicle control).
as §4

dopamine receptor DRD5 = dopamine receptor DRD5 (Homo sapiens, UniProt P21918); assay: PathHunter β-Arrestin GPCR agonist assay, DRD5; design: DRD5 (Agonist) percent activity: concentration or dose not given beside the values; conditions: for DRD5 (Agonist) percent activity: agonist mode, dopamine as control
dopamine receptor DRD5, sequence (P21918 whole entry): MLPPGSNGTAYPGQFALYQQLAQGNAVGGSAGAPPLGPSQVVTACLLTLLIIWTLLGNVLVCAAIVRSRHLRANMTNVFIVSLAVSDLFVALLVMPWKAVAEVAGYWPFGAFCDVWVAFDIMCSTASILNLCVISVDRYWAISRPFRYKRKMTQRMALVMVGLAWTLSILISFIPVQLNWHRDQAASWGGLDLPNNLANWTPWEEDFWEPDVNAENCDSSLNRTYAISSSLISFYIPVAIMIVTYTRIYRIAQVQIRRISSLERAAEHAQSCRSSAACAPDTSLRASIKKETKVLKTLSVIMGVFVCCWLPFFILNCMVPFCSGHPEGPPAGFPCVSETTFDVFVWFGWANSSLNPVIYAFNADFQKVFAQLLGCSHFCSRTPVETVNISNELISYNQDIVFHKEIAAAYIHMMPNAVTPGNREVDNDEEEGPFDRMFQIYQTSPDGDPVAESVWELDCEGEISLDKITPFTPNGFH
Description: as §2, §5
Table 2 depicts the results of evaluating the cannabinoid compounds to act as an agonist for the dopamine receptor DRD5. The same experimental procedure as used for HCRTR1 and HCRTR2 agonist testing (Table 1) was followed with the substitution of dopamine as the control for the DRD5 receptor.

HCRTR1 [3] = molecular target: T2, HCRTR1 (Homo sapiens, UniProt O43613); assay: PathHunter β-Arrestin GPCR agonist assay, HCRTR1; design: concentration or dose not given beside the values; conditions: agonist mode; Orexin A as control
T2 sequence (O43613 1-425): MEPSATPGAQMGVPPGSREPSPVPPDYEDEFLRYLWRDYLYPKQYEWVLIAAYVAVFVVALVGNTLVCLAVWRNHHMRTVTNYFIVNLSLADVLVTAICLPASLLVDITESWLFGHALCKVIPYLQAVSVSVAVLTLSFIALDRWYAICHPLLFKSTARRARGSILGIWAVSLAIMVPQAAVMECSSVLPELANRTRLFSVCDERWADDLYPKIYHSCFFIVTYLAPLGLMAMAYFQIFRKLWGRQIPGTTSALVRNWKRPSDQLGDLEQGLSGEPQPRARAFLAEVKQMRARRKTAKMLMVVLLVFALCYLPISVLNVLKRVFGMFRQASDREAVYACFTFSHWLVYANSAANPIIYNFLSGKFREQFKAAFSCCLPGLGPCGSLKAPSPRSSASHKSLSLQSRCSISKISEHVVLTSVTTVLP
Protocol: as §1, §2, §5, §4

HCRTR1 [4] = molecular target: T2, HCRTR1; assay: PathHunter β-Arrestin GPCR antagonist assay, HCRTR1; conditions: for HCRTR1 (Antagonist) percent inhibition: antagonist mode, agonist challenge at EC80
Protocol: as §1, §2, §3, §4

Row | Structure (SMILES) | antagonist effect on HCRTR2 (in words) (HCRTR2 [1]) | HCRTR2 (Antagonist) percent inhibition (HCRTR2 [1]) | HCRTR2 (Agonist) percent activity (HCRTR2 [2]) | DRD5 (Agonist) percent activity (dopamine receptor DRD5) | HCRTR1 (Agonist) percent activity (HCRTR1 [3]) | antagonist effect on HCRTR1 (in words) (HCRTR1 [4]) | HCRTR1 (Antagonist) percent inhibition (HCRTR1 [4]) | DRD5 agonist effect (in words) (dopamine receptor DRD5)
1 | C=C(C)[C@@H]1CCC(C)=C[C@H]1c1c(O)cc(CCCCC)cc1O [CBD, cannabidol] | antagonist effect; also recorded: acted as an antagonist | 85% | 5% | 27% | 1% | antagonist effect; also recorded: acted as an antagonist | 96% | –
2 | C=C(C)[C@@H]1CCC(C)=C[C@H]1c1c(O)cc(CCC)cc1O [CBDV, cannabidivarin] | demonstrate activity against only HCRTR1; also recorded: did not act as antagonists | 18% | 0% | 7% | 0% | demonstrate activity against only HCRTR1; also recorded: acted as antagonists | 61% | –
3 | CCCCCc1cc(O)c2c(c1)OC1(C)CCC3C1C2C3(C)C (centres unmarked) [CBL, cannabicyclol] | antagonist effect; also recorded: acted as an antagonist | 93% | 5% | 37% | 2% | antagonist effect; also recorded: acted as an antagonist | 96% | DRD5 agonists; also recorded: stronger agonist effects
4 | CCCc1cc(O)c2c(c1)OC(C)(C)[C@@H]1CCC(C)=C[C@@H]21 [THCV, tetrahydrocannabivarin] | antagonist effect; also recorded: acted as an antagonist | 89% | 6% | 52% | 2% | antagonist effect; also recorded: acted as an antagonist | 89% | DRD5 agonists; also recorded: stronger agonist effects
5 | CCCCCc1cc2c(c(O)c1C(=O)O)C=CC(C)(CCC=C(C)C)O2 (centres unmarked) [CBCA, cannabichromenic acid] | do not demonstrate meaningful activity | 17% | 1% | 1% | 3% | do not demonstrate meaningful activity | 12% | –
6 | CCCCCc1cc(O)c(C/C=C(\C)CCC=C(C)C)c(O)c1C(=O)O [CBGA, cannabigerolic acid] | do not demonstrate meaningful activity | 14% | 1% | 0% | 1% | do not demonstrate meaningful activity | 8% | –
